Reference: US11878973B2, “Bicyclic compounds and their uses” (NOVARTIS AG, priority 2021, dated 2024)
Like-named read-outs stand apart in the source and are kept apart here.

How the values were obtained:
WRN helicase = WRN helicase (Homo sapiens (Human), UniProt Q14191); test: In vitro enzymatic activity assay on WRN helicase (DNA dependent ATPase assay, ADP-Glo); format: biochemical; conditions: geometric means of at least 2 determinations; read-out: WRN ATPase Activity (IC50)
How it was run: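 The WRN helicase core (aa N517-P1238), 10 nM, hydrolysed 300 µM ATP in the presence of 0.2 nM FLAP26 DNA (Tris pH 7.5, 2 mM MgCl2, 50 mM NaCl) for 30 min at room temperature. ADP formed was quantified by ADP-Glo luminescence.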

SW48 cells = test: Proliferation assay SW48 (CellTiterGlo, 96 hours)
DLD1-WRN-KO cells = test: Proliferation assay DLD1-WRN-KO (CellTiterGlo, 96 hours; off-target effects); conditions: read-out: Proliferation Assay DLD1-WRN-KO (GI50)
[1] = Homo sapiens, SW48, read-out: Proliferation Assay SW48 (GI50)
[2] = read-out: Proliferation Assay SW48 (GI50), SW48 cell line, geometric means of at least 2 determinations
[3] = DLD1-WRN-KO cell line, geometric means of at least 2 determinations

Chain of WRN helicase (Q14191 517-1238): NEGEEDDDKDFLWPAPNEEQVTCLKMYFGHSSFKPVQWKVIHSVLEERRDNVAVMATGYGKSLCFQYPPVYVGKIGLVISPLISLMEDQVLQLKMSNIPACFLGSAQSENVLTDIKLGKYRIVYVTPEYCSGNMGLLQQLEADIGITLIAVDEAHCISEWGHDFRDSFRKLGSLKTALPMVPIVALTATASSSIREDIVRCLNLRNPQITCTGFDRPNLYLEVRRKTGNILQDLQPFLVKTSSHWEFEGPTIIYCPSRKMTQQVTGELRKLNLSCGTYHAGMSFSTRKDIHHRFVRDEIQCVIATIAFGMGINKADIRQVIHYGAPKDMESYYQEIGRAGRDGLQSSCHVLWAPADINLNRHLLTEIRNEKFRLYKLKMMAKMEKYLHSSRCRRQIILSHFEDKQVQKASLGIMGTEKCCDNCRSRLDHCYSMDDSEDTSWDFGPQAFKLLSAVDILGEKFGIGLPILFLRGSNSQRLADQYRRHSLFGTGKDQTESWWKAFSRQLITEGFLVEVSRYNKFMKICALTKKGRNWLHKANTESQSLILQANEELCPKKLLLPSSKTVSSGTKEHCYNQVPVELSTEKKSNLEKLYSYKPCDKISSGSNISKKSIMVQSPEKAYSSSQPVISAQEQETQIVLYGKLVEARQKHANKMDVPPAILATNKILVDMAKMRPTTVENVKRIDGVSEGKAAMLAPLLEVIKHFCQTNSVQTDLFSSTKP

SMILES | IC50 (WRN helicase) [nM] | GI50 (SW48 cells; [1]) [nM] | GI50 (DLD1-WRN-KO cells; Homo sapiens) [nM] | GI50 (SW48 cells; [2]) [nM] | GI50 (DLD1-WRN-KO cells; [3]) [nM]
CCc1c(N2CCN(C(=O)c3ncccc3O)CC2)c(=O)n2nc(C3=CCOCC3)nc2n1CC(=O)Nc1cc(F)c(C(F)(F)F)cc1C [Example 94, 2-(2-(3,6-dihydro-2H-pyran-4-yl)-5-ethyl-6-(4-(3-hydroxypicolinoyl)piperazin-1-yl)-7-oxo-[1,2,4]triazolo[1,5-a]pyrimidin-4(7H)-yl)-N-(5-fluoro-2-methyl-4-(trifluoromethyl)phenyl)acetamide] | 40 | 50 | > 10000 | – | –
CCc1c(N2CCN(C(=O)c3ncccc3O)CC2)c(=O)n2nc(N3CCOCC3)nc2n1CC(=O)Nc1cc(Cl)c(C(F)(F)F)cc1C [Example 4, N-(5-chloro-2-methyl-4-(trifluoromethyl)phenyl)-2-(5-ethyl-6-(4-(3-hydroxypicolinoyl)piperazin-1-yl)-2-morpholino-7-oxo-[1,2,4]triazolo[1,5-a]pyrimidin-4(7H)-yl)acetamide] | 40 | 60 | > 10000 | – | –
CCc1c(N2CCN(C(=O)c3ncccc3O)CC2)c(=O)n2nc(C3=CC[C@H](OC)CC3)nc2n1CC(=O)Nc1ccc(C(F)(F)F)cc1 (single isomer, unassigned) [Example 81a, ((R)-2-(5-ethyl-6-(4-(3-hydroxypicolinoyl)piperazin-1-yl)-2-(4-methoxycyclohex-1-en-1-yl)-7-oxo-[1,2,4]triazolo[1,5-a]pyrimidin-4(7H)-yl)-N-(4-(trifluoromethyl)phenyl)acetamide or ((S)-2-(5-ethyl-6-(4-(3-hydroxypicolinoyl)piperazin-1-yl)-2-(4-methoxycyclohex-1-en-1-yl)-7-oxo-[1,2,4]triazolo[1,5-a]pyrimidin-4(7H)-yl)-N-(4-(trifluoromethyl)phenyl)acetamide] | 40 | – | – | 70 | > 10000
CCc1c(N2CCN(C(=O)c3ncccc3O)CC2)c(=O)n2nc(C3=CCOCC3)nc2n1CC(=O)Nc1ccc(Cl)cc1Cl [Example 101, N-(2,4-dichlorophenyl)-2-(2-(3,6-dihydro-2H-pyran-4-yl)-5-ethyl-6-(4-(3-hydroxypicolinoyl)piperazin-1-yl)-7-oxo-[1,2,4]triazolo[1,5-a]pyrimidin-4(7H)-yl)acetamide] | 100 | 210 | > 10000 | – | –
CCc1c(N2CCN(C(=O)c3ncnc(C)c3O)[C@@H](C)[C@@H]2C)c(=O)n2nc(C3=CCOCC3)nc2n1CC(=O)Nc1ccc(C(F)(F)F)cc1Cl [Example 120, N-(2-chloro-4-(trifluoromethyl)phenyl)-2-(2-(3,6-dihydro-2H-pyran-4-yl)-5-ethyl-6-((2S,3S)-4-(5-hydroxy-6-methylpyrimidine-4-carbonyl)-2,3-dimethylpiperazin-1-yl)-7-oxo-[1,2,4]triazolo[1,5-a]pyrimidin-4(7H)-yl)acetamide] | 470 | 930 | > 10000 | – | –
CCc1c(N2CCN(C(=O)c3ncccc3O)CC2)c(=O)n2nc(C3=CC[C@H](OC)CC3)nc2n1CC(=O)Nc1ccc(C(F)(F)F)cc1C (single isomer, unassigned) [Example 80b, ((R)-2-(5-ethyl-6-(4-(3-hydroxypicolinoyl)piperazin-1-yl)-2-(4-methoxycyclohex-1-en-1-yl)-7-oxo-[1,2,4]triazolo[1,5-a]pyrimidin-4(7H)-yl)-N-(2-methyl-4-(trifluoromethyl)phenyl)acetamide) or ((S)-2-(5-ethyl-6-(4-(3-hydroxypicolinoyl)piperazin-1-yl)-2-(4-methoxycyclohex-1-en-1-yl)-7-oxo-[1,2,4]triazolo[1,5-a]pyrimidin-4(7H)-yl)-N-(2-methyl-4-(trifluoromethyl)phenyl)acetamide)] | 80 | – | – | 60 | > 10000
CCc1c(N2CCN(C(=O)c3ncccc3O)CC2)c(=O)n2nc(C3=CCOCC3)nc2n1CC(=O)Nc1cc(Cl)c(C(F)(F)F)cc1C [Example 69, N-(5-chloro-2-methyl-4-(trifluoromethyl)phenyl)-2-(2-(3,6-dihydro-2H-pyran-4-yl)-5-ethyl-6-(4-(3-hydroxypicolinoyl)piperazin-1-yl)-7-oxo-[1,2,4]triazolo[1,5-a]pyrimidin-4(7H)-yl)acetamide] | 40 | 30 | 6300 | – | –
CCc1c(N2CCN(C(=O)c3ncncc3O)CC2)c(=O)n2nc(C3=CCOCC3)nc2n1CC(=O)Nc1ccc(C(F)(F)F)cc1C [Example 64, 2-(2-(3,6-dihydro-2H-pyran-4-yl)-5-ethyl-6-(4-(5-hydroxypyrimidine-4-carbonyl)piperazin-1-yl)-7-oxo-[1,2,4]triazolo[1,5-a]pyrimidin-4(7H)-yl)-N-(2-methyl-4-(trifluoromethyl)phenyl)acetamide] | 90 | 480 | > 10000 | – | –
O=C(Cn1c(C2CC2)c(N2CCN(C(=O)c3ncccc3O)CC2)c(=O)n2nc(C3=CCOCC3)nc12)Nc1ccc(C(F)(F)F)cc1 [Example 134, 2-(5-cyclopropyl-2-(3,6-dihydro-2H-pyran-4-yl)-6-(4-(3-hydroxypicolinoyl)piperazin-1-yl)-7-oxo-[1,2,4]triazolo[1,5-a]pyrimidin-4(7H)-yl)-N-(4-(trifluoromethyl)phenyl)acetamide] | 60 | 210 | > 10000 | – | –
CCc1c(N2CCN(C(=O)c3nccc(Cl)c3O)CC2)c(=O)n2nc(C3=COCCO3)nc2n1CC(=O)Nc1ccc(C(F)(F)F)cc1C [Example 78, 2-(6-(4-(4-chloro-3-hydroxypicolinoyl)piperazin-1-yl)-2-(5,6-dihydro-1,4-dioxin-2-yl)-5-ethyl-7-oxo-[1,2,4]triazolo[1,5-a]pyrimidin-4(7H)-yl)-N-(2-methyl-4-(trifluoromethyl)phenyl)acetamide] | 80 | 300 | > 10000 | – | –
CCc1c(N2CCN(C(=O)c3ncccc3O)CC2)c(=O)n2nc(N3CCOCC3)nc2n1CC(=O)Nc1ccc(C(F)(F)F)nc1Cl [Example 10, N-(2-chloro-6-(trifluoromethyl)pyridin-3-yl)-2-(5-ethyl-6-(4-(3-hydroxypicolinoyl)piperazin-1-yl)-2-morpholino-7-oxo-[1,2,4]triazolo[1,5-a]pyrimidin-4(7H)-yl)acetamide] | 250 | 290 | 9900 | – | –
CCc1c(N2CCN(C(=O)c3ncccc3O)CC2)c(=O)n2nc(C3=CCC(OC)CC3)nc2n1CC(=O)Nc1ccc(C(F)(F)F)nc1C (racemic) [Example 26, rac-2-(5-ethyl-6-(4-(3-hydroxypicolinoyl)piperazin-1-yl)-2-(4-methoxycyclohex-1-en-1-yl)-7-oxo-[1,2,4]triazolo[1,5-a]pyrimidin-4(7H)-yl)-N-(2-methyl-6-(trifluoromethyl)pyridin-3-yl)acetamide] | 250 | 80 | > 10000 | – | –
CCc1c(N2CCN(C(=O)c3ncccc3O)CC2)c(=O)n2nc(N3CCOCC3)nc2n1CC(=O)Nc1cc(F)c(C(F)(F)F)cc1C [Example 5, 2-(5-ethyl-6-(4-(3-hydroxypicolinoyl)piperazin-1-yl)-2-morpholino-7-oxo-[1,2,4]triazolo[1,5-a]pyrimidin-4(7H)-yl)-N-(5-fluoro-2-methyl-4-(trifluoromethyl)phenyl)acetamide] | 90 | 120 | > 10000 | – | –
CCc1c(N2CCN(C(=O)c3ncccc3O)CC2)c(=O)n2nc(C3=CCOCC3)nc2n1CC(=O)Nc1cnc(C(F)(F)F)cc1C [Example 34, 2-(2-(3,6-dihydro-2H-pyran-4-yl)-5-ethyl-6-(4-(3-hydroxypicolinoyl)piperazin-1-yl)-7-oxo-[1,2,4]triazolo[1,5-a]pyrimidin-4(7H)-yl)-N-(4-methyl-6-(trifluoromethyl)pyridin-3-yl)acetamide] | 250 | 280 | > 10000 | – | –
CCc1c(N2CCN(C(=O)c3ncccc3O)CC2)c(=O)n2nc(C3=CC[C@H](OC)CC3)nc2n1CC(=O)Nc1ccc(C(F)(F)F)cc1C (single isomer, unassigned) [Example 80a, ((R)-2-(5-ethyl-6-(4-(3-hydroxypicolinoyl)piperazin-1-yl)-2-(4-methoxycyclohex-1-en-1-yl)-7-oxo-[1,2,4]triazolo[1,5-a]pyrimidin-4(7H)-yl)-N-(2-methyl-4-(trifluoromethyl)phenyl)acetamide) or ((S)-2-(5-ethyl-6-(4-(3-hydroxypicolinoyl)piperazin-1-yl)-2-(4-methoxycyclohex-1-en-1-yl)-7-oxo-[1,2,4]triazolo[1,5-a]pyrimidin-4(7H)-yl)-N-(2-methyl-4-(trifluoromethyl)phenyl)acetamide)] | 70 | – | – | 70 | > 10000
CCc1c(N2CCN(C(=O)c3ncnc(C)c3O)[C@H]3CC[C@@H]32)c(=O)n2nc(C3=CCOCC3)nc2n1CC(=O)Nc1ccc(C(F)(F)F)cc1Cl [Example 125, N-(2-chloro-4-(trifluoromethyl)phenyl)-2-(2-(3,6-dihydro-2H-pyran-4-yl)-5-ethyl-6-((1 S,6S)-5-(5-hydroxy-6-methylpyrimidine-4-carbonyl)-2,5-diazabicyclo[4.2.0]octan-2-yl)-7-oxo-[1,2,4]triazolo[1,5-a]pyrimidin-4(7H)-yl)acetamide] | 30 | 10 | > 10000 | – | –
